Results taken from the supplement of paper PMC11451515.

Assays:
Conditions in all cases: 48 h
SEM cells [1] = assay: AUC of viability dose-response curve (% viability x log10 dose units); higher = less sensitive
In short: (§1)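 Leukemia cells adapted to each medium were seeded at 500 or 1000 cells/well in 1536-well plates and dosed with library compounds in DMSO at 11 threefold doses from 47 μM to 0.79 nM for 48 h at 37°C. CellTiter-Glo One luminescence was normalised per plate to DMSO and cell-free wells, then fitted with a four-parameter log-logistic model over log10 doses. Area under the curve was taken from this fit by the trapezoidal rule, with curves above full viability scaled and curves failing quality control removed.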

NOMO1 [2] = assay: as above
In short: as §1

P12-Ichikawa [3] = assay: as above
In short: as §1

SEM cells [4] = assay: cell viability relative to DMSO control; higher = less cytotoxic
In short: (§2)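 Viability was expressed as a per-plate percentage of DMSO wells, with cell-free wells as background. Leukemia cells (NOMO1 or SEM at 500 cells/well, P12-Ichikawa at 1000 cells/well) were adapted for at least four passages in each medium and seeded in 1536-well plates (5 μl). Library compounds in DMSO were pin-dosed over an 11-point threefold series from 47 μM to 0.79 nM, and CellTiter-Glo One luminescence was read after 48 h at 37°C.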

NOMO1 [5] = assay: as above
In short: as §2

P12-Ichikawa [6] = assay: as above
In short: as §2

CC(C)N(CCCNC(=O)Nc1ccc(C(C)(C)C)cc1)C[C@H]1O[C@@H](n2cc(Br)c3c(N)ncnc32)[C@H](O)[C@@H]1O
AUC of viability dose-response curve
Conditions | NOMO1 [2] | P12-Ichikawa [3] | SEM cells [1]
HPLM + 10% dialyzed FBS | 433 | 409 | 433
RPMI 5 mM glucose + 10% FBS | 397 | 405 | 434
RPMI 5 mM glucose + 10% dialyzed FBS | 398 | 395 | 397

cell viability [%]
Conditions | NOMO1 [5] | P12-Ichikawa [6] | SEM cells [4]
HPLM + 10% dialyzed FBS, 0.000781 µM | 98.3 | 85.8 | 87.3
HPLM + 10% dialyzed FBS, 0.00234 µM | 101 | 89.9 | 99.8
HPLM + 10% dialyzed FBS, 0.00702 µM | 112 | 92.2 | 96.6
HPLM + 10% dialyzed FBS, 0.0211 µM | 84.5 | 93 | 98.8
HPLM + 10% dialyzed FBS, 0.0632 µM | 105 | 97 | 105
HPLM + 10% dialyzed FBS, 0.19 µM | 106 | 94 | 101
HPLM + 10% dialyzed FBS, 0.569 µM | 110 | 97.9 | 85.1
HPLM + 10% dialyzed FBS, 1.71 µM | 95.1 | 88 | 98.4
HPLM + 10% dialyzed FBS, 5.12 µM | 85.4 | 81.4 | 104
HPLM + 10% dialyzed FBS, 15.4 µM | 71.4 | 77.8 | 72.4
HPLM + 10% dialyzed FBS, 46.1 µM | 9.86 | 13.8 | 18
RPMI 5 mM glucose + 10% FBS, 0.000781 µM | 80 | 87.3 | 83.1
RPMI 5 mM glucose + 10% FBS, 0.00234 µM | 96.3 | 91.6 | 98.3
RPMI 5 mM glucose + 10% FBS, 0.00702 µM | 88.7 | 90.8 | 115
RPMI 5 mM glucose + 10% FBS, 0.0211 µM | 87.8 | 86.1 | 104
RPMI 5 mM glucose + 10% FBS, 0.0632 µM | 86 | 87.1 | 114
RPMI 5 mM glucose + 10% FBS, 0.19 µM | 80.8 | 87.2 | 109
RPMI 5 mM glucose + 10% FBS, 0.569 µM | 92.2 | 91.5 | 106
RPMI 5 mM glucose + 10% FBS, 1.71 µM | 80.9 | 85.8 | 104
RPMI 5 mM glucose + 10% FBS, 5.12 µM | 94.2 | 87.1 | 77.4
RPMI 5 mM glucose + 10% FBS, 15.4 µM | 73.8 | 74 | 77.2
RPMI 5 mM glucose + 10% FBS, 46.1 µM | 31.8 | 47.2 | 17.1
RPMI 5 mM glucose + 10% dialyzed FBS, 0.000781 µM | 86.4 | 83.5 | 67.2
RPMI 5 mM glucose + 10% dialyzed FBS, 0.00234 µM | 81.3 | 90 | 92.6
RPMI 5 mM glucose + 10% dialyzed FBS, 0.00702 µM | 93.6 | 89.6 | 98.9
RPMI 5 mM glucose + 10% dialyzed FBS, 0.0211 µM | 105 | 88.3 | 92.5
RPMI 5 mM glucose + 10% dialyzed FBS, 0.0632 µM | 90.1 | 85.4 | 89.7
RPMI 5 mM glucose + 10% dialyzed FBS, 0.19 µM | 86.3 | 88.6 | 91.4
RPMI 5 mM glucose + 10% dialyzed FBS, 0.569 µM | 81.6 | 91.8 | 87.7
RPMI 5 mM glucose + 10% dialyzed FBS, 1.71 µM | 82.2 | 80.1 | 80.2
RPMI 5 mM glucose + 10% dialyzed FBS, 5.12 µM | 90.5 | 85.4 | 83.5
RPMI 5 mM glucose + 10% dialyzed FBS, 15.4 µM | 68.8 | 68.9 | 78.9
RPMI 5 mM glucose + 10% dialyzed FBS, 46.1 µM | 26.2 | 39.2 | 26.3

O=C(N[C@H]1CN2CCC1CC2)c1ccc(Cl)cc1
AUC of viability dose-response curve
Conditions | NOMO1 [2] | P12-Ichikawa [3] | SEM cells [1]
HPLM + 10% dialyzed FBS | 462 | 467 | 457
RPMI 5 mM glucose + 10% FBS | 470 | 469 | 439
RPMI 5 mM glucose + 10% dialyzed FBS | 469 | 466 | 468

cell viability [%]
Conditions | NOMO1 [5] | P12-Ichikawa [6] | SEM cells [4]
HPLM + 10% dialyzed FBS, 0.000781 µM | 91.3 | 99.2 | 89.3
HPLM + 10% dialyzed FBS, 0.00234 µM | 106 | 107 | 96.5
HPLM + 10% dialyzed FBS, 0.00702 µM | 110 | 104 | 95.5
HPLM + 10% dialyzed FBS, 0.0211 µM | 138 | 110 | 99.8
HPLM + 10% dialyzed FBS, 0.0632 µM | 123 | 110 | 98.7
HPLM + 10% dialyzed FBS, 0.19 µM | 127 | 116 | 87.4
HPLM + 10% dialyzed FBS, 0.569 µM | 118 | 114 | 96.3
HPLM + 10% dialyzed FBS, 1.71 µM | 107 | 114 | 105
HPLM + 10% dialyzed FBS, 5.12 µM | 127 | 116 | 102
HPLM + 10% dialyzed FBS, 15.4 µM | 103 | 109 | 98.5
HPLM + 10% dialyzed FBS, 46.1 µM | 68.1 | 99.2 | 84.4
RPMI 5 mM glucose + 10% FBS, 0.000781 µM | 97.8 | 110 | 84
RPMI 5 mM glucose + 10% FBS, 0.00234 µM | 97.1 | 106 | 92.2
RPMI 5 mM glucose + 10% FBS, 0.00702 µM | 103 | 114 | 99.5
RPMI 5 mM glucose + 10% FBS, 0.0211 µM | 101 | 103 | 87.8
RPMI 5 mM glucose + 10% FBS, 0.0632 µM | 114 | 108 | 96.1
RPMI 5 mM glucose + 10% FBS, 0.19 µM | 103 | 111 | 95.9
RPMI 5 mM glucose + 10% FBS, 0.569 µM | 103 | 114 | 101
RPMI 5 mM glucose + 10% FBS, 1.71 µM | 94.8 | 110 | 99.5
RPMI 5 mM glucose + 10% FBS, 5.12 µM | 92.2 | 106 | 93.3
RPMI 5 mM glucose + 10% FBS, 15.4 µM | 102 | 101 | 88.6
RPMI 5 mM glucose + 10% FBS, 46.1 µM | 98.3 | 99.9 | 60.2
RPMI 5 mM glucose + 10% dialyzed FBS, 0.000781 µM | 107 | 98.2 | 93.2
RPMI 5 mM glucose + 10% dialyzed FBS, 0.00234 µM | 101 | 100 | 98.9
RPMI 5 mM glucose + 10% dialyzed FBS, 0.00702 µM | 97.2 | 104 | 94.8
RPMI 5 mM glucose + 10% dialyzed FBS, 0.0211 µM | 91.4 | 114 | 94.3
RPMI 5 mM glucose + 10% dialyzed FBS, 0.0632 µM | 108 | 118 | 104
RPMI 5 mM glucose + 10% dialyzed FBS, 0.19 µM | 109 | 116 | 116
RPMI 5 mM glucose + 10% dialyzed FBS, 0.569 µM | 103 | 113 | 96.1
RPMI 5 mM glucose + 10% dialyzed FBS, 1.71 µM | 92.2 | 114 | 93.2
RPMI 5 mM glucose + 10% dialyzed FBS, 5.12 µM | 103 | 102 | 94.1
RPMI 5 mM glucose + 10% dialyzed FBS, 15.4 µM | 106 | 104 | 107
RPMI 5 mM glucose + 10% dialyzed FBS, 46.1 µM | 109 | 92.4 | 76.1

NC(=O)c1c(OCc2c(F)cc(Br)cc2F)nsc1NC(=O)NCCCCN1CCCC1
AUC of viability dose-response curve
Conditions | NOMO1 [2] | P12-Ichikawa [3] | SEM cells [1]
HPLM + 10% dialyzed FBS | 370 | 430 | 415
RPMI 5 mM glucose + 10% FBS | 450 | 445 | 397
RPMI 5 mM glucose + 10% dialyzed FBS | 421 | 436 | 435

cell viability [%]
Conditions | NOMO1 [5] | P12-Ichikawa [6] | SEM cells [4]
HPLM + 10% dialyzed FBS, 0.000781 µM | 89.9 | 107 | 116
HPLM + 10% dialyzed FBS, 0.00234 µM | 108 | 112 | 122
HPLM + 10% dialyzed FBS, 0.00702 µM | 91.4 | 103 | 111
HPLM + 10% dialyzed FBS, 0.0211 µM | 82.3 | 104 | 106
HPLM + 10% dialyzed FBS, 0.0632 µM | 76.8 | 99.9 | 108
HPLM + 10% dialyzed FBS, 0.19 µM | 87.6 | 102 | 131
HPLM + 10% dialyzed FBS, 0.569 µM | 107 | 98.8 | 118
HPLM + 10% dialyzed FBS, 1.71 µM | 79.8 | 100 | 111
HPLM + 10% dialyzed FBS, 5.12 µM | 67.6 | 89.5 | 84.4
HPLM + 10% dialyzed FBS, 15.4 µM | 18.5 | 45.2 | 39.2
HPLM + 10% dialyzed FBS, 46.1 µM | 21.5 | 43.8 | 35.9
RPMI 5 mM glucose + 10% FBS, 0.000781 µM | 123 | – | 91.6
RPMI 5 mM glucose + 10% FBS, 0.00234 µM | 116 | – | 100
RPMI 5 mM glucose + 10% FBS, 0.00702 µM | 115 | – | 78.7
RPMI 5 mM glucose + 10% FBS, 0.0211 µM | 116 | – | 83.2
RPMI 5 mM glucose + 10% FBS, 0.0632 µM | 112 | – | 90.5
RPMI 5 mM glucose + 10% FBS, 0.19 µM | 105 | – | 110
RPMI 5 mM glucose + 10% FBS, 0.569 µM | 111 | – | 109
RPMI 5 mM glucose + 10% FBS, 1.71 µM | 103 | – | 103
RPMI 5 mM glucose + 10% FBS, 5.12 µM | 103 | – | 75.4
RPMI 5 mM glucose + 10% FBS, 15.4 µM | 66.6 | – | 22.4
RPMI 5 mM glucose + 10% FBS, 46.1 µM | 85.7 | – | 27.9
RPMI 5 mM glucose + 10% dialyzed FBS, 0.000781 µM | – | 123 | 97
RPMI 5 mM glucose + 10% dialyzed FBS, 0.00234 µM | – | 126 | 130
RPMI 5 mM glucose + 10% dialyzed FBS, 0.00702 µM | – | 116 | 97.6
RPMI 5 mM glucose + 10% dialyzed FBS, 0.0211 µM | – | 111 | 116
RPMI 5 mM glucose + 10% dialyzed FBS, 0.0632 µM | – | 108 | 97
RPMI 5 mM glucose + 10% dialyzed FBS, 0.19 µM | – | 111 | 129
RPMI 5 mM glucose + 10% dialyzed FBS, 0.569 µM | – | 111 | 123
RPMI 5 mM glucose + 10% dialyzed FBS, 1.71 µM | – | 96.7 | 114
RPMI 5 mM glucose + 10% dialyzed FBS, 5.12 µM | – | 99.6 | 107
RPMI 5 mM glucose + 10% dialyzed FBS, 15.4 µM | – | 46.9 | 37.1
RPMI 5 mM glucose + 10% dialyzed FBS, 46.1 µM | – | 68.1 | 63.7
